Experimental data taken from patent US20260007599A1, “TICAGRELOR IV FORMULATIONS FOR USE IN THE TREATMENT OF GRAM-POSITIVE BACTEREMIA” (Hyloris Developments SA, priority 2023, published 2026).

Experiment: Solubilization of ticagrelor in unbuffered cyclodextrin stock solutions in milli Q water, appearance on shaking platform;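 for Appearance in cyclodextrin: plus means clear and fully dissolved while plus-minus means clear solution with precipitation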
Format: physicochemical
Experimental: In a first example two different types of cyclodextrin were used and compared for the solubilization of ticagrelor. An unbuffered stock solution of HPBCD or SBECD was made in water at the target concentrations of 20 w/w %, 25 w/w %, 30 w/w %, 35 w/w % and 40 w/w %. Ticagrelor was added slowly under vortex. Ticagrelor was used at concentrations of 5, 10 or 14 mg/ml in milli Q water. The ticagrelor-cyclodextrin solutions were left on a shaking platform. No sonification or heat was applied.

**Q.** What does the source list for CCCSc1nc(N[C@@H]2C[C@H]2c2ccc(F)c(F)c2)c2nnn([C@@H]3C[C@H](OCCO)[C@@H](O)[C@H]3O)c2n1 [ticagrelor, (1S,2S,3R,5S)-3-{7-[(1R,2S)-2-(3,4-difluorophenyl)cyclopropylamino]5-(propylthio)-3H-(1,2,3)triazolo (4,5-D)pyrimidin-3-yl}-5-(2 hydroxyethoxy) cyclopentane-1,2-diol]?
**A.** Appearance in cyclodextrin (HPβCD 25% w/w, ticagrelor 10 mg/ml, after overnight shaking): − (translucent solution with precipitation); Appearance in cyclodextrin (HPβCD 25% w/w, ticagrelor 14 mg/ml, after 5 min of shaking): − (translucent solution with precipitation); Appearance in cyclodextrin (HPβCD 25% w/w, ticagrelor 14 mg/ml, after 30 min of shaking): − (translucent solution with precipitation); Appearance in cyclodextrin (HPβCD 25% w/w, ticagrelor 14 mg/ml, after 60 min of shaking): − (translucent solution with precipitation); Appearance in cyclodextrin (HPβCD 25% w/w, ticagrelor 14 mg/ml, after 3 h of shaking): − (translucent solution with precipitation); Appearance in cyclodextrin (HPβCD 25% w/w, ticagrelor 14 mg/ml, after overnight shaking): − (translucent solution with precipitation); Appearance in cyclodextrin (HPβCD 30% w/w, ticagrelor 5 mg/ml, after 5 min of shaking): − (translucent solution with precipitation); Appearance in cyclodextrin (HPβCD 30% w/w, ticagrelor 5 mg/ml, after 30 min of shaking): +/−; Appearance in cyclodextrin (HPβCD 30% w/w, ticagrelor 5 mg/ml, after 60 min of shaking): +/−; Appearance in cyclodextrin (HPβCD 30% w/w, ticagrelor 5 mg/ml, after 3 h of shaking): +/−; Appearance in cyclodextrin (HPβCD 30% w/w, ticagrelor 5 mg/ml, after overnight shaking): + (clear, appeared completely dissolved); Appearance in cyclodextrin (HPβCD 30% w/w, ticagrelor 10 mg/ml, after 5 min of shaking): − (translucent solution with precipitation); Appearance in cyclodextrin (HPβCD 30% w/w, ticagrelor 10 mg/ml, after 30 min of shaking): − (translucent solution with precipitation); Appearance in cyclodextrin (HPβCD 30% w/w, ticagrelor 10 mg/ml, after 60 min of shaking): − (translucent solution with precipitation); Appearance in cyclodextrin (HPβCD 30% w/w, ticagrelor 10 mg/ml, after 3 h of shaking): − (translucent solution with precipitation); Appearance in cyclodextrin (HPβCD 30% w/w, ticagrelor 10 mg/ml, after overnight shaking): − (translucent solution with precipitation); Appearance in cyclodextrin (HPβCD 30% w/w, ticagrelor 14 mg/ml, after 5 min of shaking): − (translucent solution with precipitation); Appearance in cyclodextrin (HPβCD 30% w/w, ticagrelor 14 mg/ml, after 30 min of shaking): − (translucent solution with precipitation); Appearance in cyclodextrin (HPβCD 30% w/w, ticagrelor 14 mg/ml, after 60 min of shaking): − (translucent solution with precipitation); Appearance in cyclodextrin (HPβCD 30% w/w, ticagrelor 14 mg/ml, after 3 h of shaking): − (translucent solution with precipitation); Appearance in cyclodextrin (HPβCD 30% w/w, ticagrelor 14 mg/ml, after overnight shaking): − (translucent solution with precipitation); Appearance in cyclodextrin (HPβCD 35% w/w, ticagrelor 5 mg/ml, after 5 min of shaking): +/−; Appearance in cyclodextrin (HPβCD 35% w/w, ticagrelor 5 mg/ml, after 30 min of shaking): +/−; Appearance in cyclodextrin (HPβCD 35% w/w, ticagrelor 5 mg/ml, after 60 min of shaking): +/−; Appearance in cyclodextrin (HPβCD 35% w/w, ticagrelor 5 mg/ml, after 3 h of shaking): +/−; Appearance in cyclodextrin (HPβCD 35% w/w, ticagrelor 5 mg/ml, after overnight shaking): + (clear, appeared completely dissolved); Appearance in cyclodextrin (HPβCD 35% w/w, ticagrelor 10 mg/ml, after 5 min of shaking): − (translucent solution with precipitation); Appearance in cyclodextrin (HPβCD 35% w/w, ticagrelor 10 mg/ml, after 30 min of shaking): +/−; Appearance in cyclodextrin (HPβCD 35% w/w, ticagrelor 10 mg/ml, after 60 min of shaking): +/−; Appearance in cyclodextrin (HPβCD 35% w/w, ticagrelor 10 mg/ml, after 3 h of shaking): +/−; Appearance in cyclodextrin (HPβCD 35% w/w, ticagrelor 10 mg/ml, after overnight shaking): + (clear, appeared completely dissolved); Appearance in cyclodextrin (HPβCD 35% w/w, ticagrelor 14 mg/ml, after 5 min of shaking): − (translucent solution with precipitation); Appearance in cyclodextrin (HPβCD 35% w/w, ticagrelor 14 mg/ml, after 30 min of shaking): +/−; Appearance in cyclodextrin (HPβCD 35% w/w, ticagrelor 14 mg/ml, after 60 min of shaking): +/−; Appearance in cyclodextrin (HPβCD 35% w/w, ticagrelor 14 mg/ml, after 3 h of shaking): +/−; Appearance in cyclodextrin (HPβCD 35% w/w, ticagrelor 14 mg/ml, after overnight shaking): +/−; Appearance in cyclodextrin (HPβCD 40% w/w, ticagrelor 5 mg/ml, after 5 min of shaking): + (clear, appeared completely dissolved); Appearance in cyclodextrin (HPβCD 40% w/w, ticagrelor 5 mg/ml, after 30 min of shaking): + (clear, appeared completely dissolved); Appearance in cyclodextrin (HPβCD 40% w/w, ticagrelor 5 mg/ml, after 60 min of shaking): + (clear, appeared completely dissolved); Appearance in cyclodextrin (HPβCD 40% w/w, ticagrelor 5 mg/ml, after 3 h of shaking): + (clear, appeared completely dissolved); Appearance in cyclodextrin (HPβCD 40% w/w, ticagrelor 5 mg/ml, after overnight shaking): + (clear, appeared completely dissolved); Appearance in cyclodextrin (HPβCD 40% w/w, ticagrelor 10 mg/ml, after 5 min of shaking): − (translucent solution with precipitation); Appearance in cyclodextrin (HPβCD 40% w/w, ticagrelor 10 mg/ml, after 30 min of shaking): +/−; Appearance in cyclodextrin (HPβCD 40% w/w, ticagrelor 10 mg/ml, after 60 min of shaking): +/−; Appearance in cyclodextrin (HPβCD 40% w/w, ticagrelor 10 mg/ml, after 3 h of shaking): +/−; Appearance in cyclodextrin (HPβCD 40% w/w, ticagrelor 10 mg/ml, after overnight shaking): + (clear, appeared completely dissolved); Appearance in cyclodextrin (HPβCD 40% w/w, ticagrelor 14 mg/ml, after 5 min of shaking): − (translucent solution with precipitation); Appearance in cyclodextrin (HPβCD 40% w/w, ticagrelor 14 mg/ml, after 30 min of shaking): +/−; Appearance in cyclodextrin (HPβCD 40% w/w, ticagrelor 14 mg/ml, after 60 min of shaking): +/−; Appearance in cyclodextrin (HPβCD 40% w/w, ticagrelor 14 mg/ml, after 3 h of shaking): +/−; Appearance in cyclodextrin (SBECD 35% w/w, ticagrelor 5 mg/ml, after 5 min of shaking): − (translucent solution with precipitation); Appearance in cyclodextrin (SBECD 35% w/w, ticagrelor 5 mg/ml, after 30 min of shaking): +/−; Appearance in cyclodextrin (SBECD 35% w/w, ticagrelor 5 mg/ml, after 60 min of shaking): +/−; Appearance in cyclodextrin (SBECD 35% w/w, ticagrelor 5 mg/ml, after 3 h of shaking): +/−; Appearance in cyclodextrin (SBECD 35% w/w, ticagrelor 5 mg/ml, after overnight shaking): − (translucent solution with precipitation); Appearance in cyclodextrin (SBECD 35% w/w, ticagrelor 10 mg/ml, after 5 min of shaking): − (translucent solution with precipitation); Appearance in cyclodextrin (SBECD 35% w/w, ticagrelor 10 mg/ml, after 30 min of shaking): − (translucent solution with precipitation); Appearance in cyclodextrin (SBECD 35% w/w, ticagrelor 10 mg/ml, after 60 min of shaking): − (translucent solution with precipitation); Appearance in cyclodextrin (SBECD 35% w/w, ticagrelor 10 mg/ml, after 3 h of shaking): − (translucent solution with precipitation); Appearance in cyclodextrin (SBECD 35% w/w, ticagrelor 10 mg/ml, after overnight shaking): − (translucent solution with precipitation); Appearance in cyclodextrin (SBECD 35% w/w, ticagrelor 14 mg/ml, after 5 min of shaking): − (translucent solution with precipitation); Appearance in cyclodextrin (SBECD 35% w/w, ticagrelor 14 mg/ml, after 30 min of shaking): − (translucent solution with precipitation); Appearance in cyclodextrin (SBECD 35% w/w, ticagrelor 14 mg/ml, after 60 min of shaking): − (translucent solution with precipitation); Appearance in cyclodextrin (SBECD 35% w/w, ticagrelor 14 mg/ml, after 3 h of shaking): − (translucent solution with precipitation); Appearance in cyclodextrin (SBECD 35% w/w, ticagrelor 14 mg/ml, after overnight shaking): − (translucent solution with precipitation); Appearance in cyclodextrin (SBECD 40% w/w, ticagrelor 10 mg/ml, after 5 min of shaking): − (translucent solution with precipitation); Appearance in cyclodextrin (SBECD 40% w/w, ticagrelor 10 mg/ml, after 30 min of shaking): − (translucent solution with precipitation); Appearance in cyclodextrin (SBECD 40% w/w, ticagrelor 10 mg/ml, after 60 min of shaking): − (translucent solution with precipitation); Appearance in cyclodextrin (SBECD 40% w/w, ticagrelor 10 mg/ml, after 3 h of shaking): − (translucent solution with precipitation); Appearance in cyclodextrin (SBECD 40% w/w, ticagrelor 10 mg/ml, after overnight shaking): − (translucent solution with precipitation); Appearance in cyclodextrin (SBECD 40% w/w, ticagrelor 14 mg/ml, after 5 min of shaking): − (translucent solution with precipitation); Appearance in cyclodextrin (SBECD 40% w/w, ticagrelor 14 mg/ml, after 30 min of shaking): − (translucent solution with precipitation); Appearance in cyclodextrin (SBECD 40% w/w, ticagrelor 14 mg/ml, after 60 min of shaking): − (translucent solution with precipitation); Appearance in cyclodextrin (SBECD 40% w/w, ticagrelor 14 mg/ml, after 3 h of shaking): − (translucent solution with precipitation); Appearance in cyclodextrin (SBECD 40% w/w, ticagrelor 14 mg/ml, after overnight shaking): − (translucent solution with precipitation); Appearance on standing (ticagrelor 5 mg/ml in HPBCD 40%, 35% or 30% w/w in milliQ water, at least three days at room temperature and several days at 4° C.): remained clear
